Laboratory results: publication PMC11111852, “Exploration of the role of the penicillin binding protein 2c (Pbp2c) in inducible β-lactam resistance in Corynebacteriaceae” (Frontiers in Microbiology, 2024)

Legend:
BlaCor = molecular target: T1, BlaCor (Corynebacterium jeikeium, UniProt Q4JX89); experiment: electrospray mass spectrometry of covalent adduct; type: binding; settings: not hydrolysed
T1 construct: gene jk0411; 276-residue protein with N-terminal His6-TEV tag (pET-TEV), E. coli BL21(DE3), observed mass 32,825 Da, monomer
T1 sequence (Q4JX89 entry or part of it): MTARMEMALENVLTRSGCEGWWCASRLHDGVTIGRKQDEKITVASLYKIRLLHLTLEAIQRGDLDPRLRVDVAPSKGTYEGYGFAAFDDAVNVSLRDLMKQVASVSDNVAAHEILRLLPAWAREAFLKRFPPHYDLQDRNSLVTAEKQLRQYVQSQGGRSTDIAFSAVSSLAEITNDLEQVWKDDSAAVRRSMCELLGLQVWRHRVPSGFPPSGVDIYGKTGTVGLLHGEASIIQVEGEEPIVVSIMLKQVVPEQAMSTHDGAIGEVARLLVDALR

Pbp2c = molecular target: T2, Pbp2c (Corynebacterium jeikeium, UniProt Q4JX88); experiment: electrospray mass spectrometry of covalent adduct; type: binding; settings: 20 uM protein, 200 uM drug, 1 h, 20 °C, 100 mM MES pH 6.4
T2 construct: residues 32-593 without N-terminal transmembrane segment; E. coli BL21(DE3); 62,975 Da; monomer
T2 sequence (Q4JX88 entry or part of it): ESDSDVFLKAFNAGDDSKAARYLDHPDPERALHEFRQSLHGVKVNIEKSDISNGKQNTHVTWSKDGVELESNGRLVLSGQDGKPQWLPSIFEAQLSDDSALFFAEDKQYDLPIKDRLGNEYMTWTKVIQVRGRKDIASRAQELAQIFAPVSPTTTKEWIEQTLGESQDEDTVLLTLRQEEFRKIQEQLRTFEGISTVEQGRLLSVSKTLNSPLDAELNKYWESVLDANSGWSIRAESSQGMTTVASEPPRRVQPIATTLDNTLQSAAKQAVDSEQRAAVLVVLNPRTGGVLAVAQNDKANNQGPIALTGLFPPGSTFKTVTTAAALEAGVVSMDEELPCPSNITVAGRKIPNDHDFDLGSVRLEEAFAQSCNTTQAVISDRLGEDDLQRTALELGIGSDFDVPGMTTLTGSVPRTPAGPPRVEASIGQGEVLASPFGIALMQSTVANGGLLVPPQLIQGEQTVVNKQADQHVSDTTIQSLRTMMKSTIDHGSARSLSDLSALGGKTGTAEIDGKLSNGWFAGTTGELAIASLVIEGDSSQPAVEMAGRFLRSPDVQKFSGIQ

Compound	electrospray mass spectrometry of covalent adduct (BlaCor)	electrospray mass spectrometry of covalent adduct (Pbp2c)
O=C(Cc1cccs1)N[C@@H]1C(=O)N2C(C(=O)O)=C(/C=C/c3ccc([N+](=O)[O-])cc3[N+](=O)[O-])CS[C@H]12 [nitrocefin]	the nitrocefin-BlaCor adduct was detected by mass spectrometry (data not shown)	
C[C@@H](O)[C@H]1C(=O)N2C(C(=O)O)=C(S[C@@H]3CN[C@H](C(=O)N(C)C)C3)[C@H](C)[C@H]12 [meropenem]		Adducts matching increments of the average mass of meropenem were also detected
C[C@@H](O)[C@H]1C(=O)N2C(C(=O)O)=C(SCCN=CN)C[C@H]12 [imipenem]		Incubation of Pbp2c with imipenem allowed the detection of adducts
